This is an account of results in patent US5843992A, “Epoxysuccinic acid derivatives” (Nippon Chemiphar Co., Ltd., priority 1995, dated 1998).

As a reminder, the IC50 is the midpoint of a concentration-inhibition curve.

Like-named read-outs stand apart in the source and are kept apart here.

In test [1] the target is T1, cathepsin B (Rattus norvegicus, UniProt P00787).
T1 construct: Preparation of Rat Liver Lysosome Fraction; from tissue; host or cells: rat liver lysosome fraction (male Wistar rat)
The test can be described thus: Cathepsin B inhibitory action (lysosome fraction, Z-Arg-Arg-MCA). The format is biochemical, rat (Wistar). The settings on record: pH 6.0, 30° C.; read-out: Cathepsin B Inhibition (IC50). As to the method:
Male rat of Wistar strain was killed by exsangulnation and a ice-chilled physiological saline was introduced into portal vein for circulation. Then, its liver was taken out. Thereafter, the following procedures were performed at 4° C.
The liver was minced by scissors. Five grams of minced liver were homogenized in a Potter type Teflon Homogenizer after addition of 0.25M aqueous sucrose solution in a volume as much as nine times. The homogenized mixture was centrifuged for 10 minutes at 800 G. The resulting supernatant was further centrifuged at 12,000 G for 20 minutes. The precipitate was homogenized in 25 mL of 0.25M aqueous sucrose solution, and then centrifuged for 20 minutes at 12,000 G. The resulting precipitate was further homogenized after 100 mL of 0.25M aqueous sucrose solution. Thus, a lysosome fraction was obtained.
To 0.25 mL of a solution (pH: 6.0) containing 352 mM KH2 PO4, 48 mM Na2 HPO4, 5.32 mM EDTA.2 Na and 10 mM L-cysteine were added 0.1 mL of the lysosome fraction, 5 μL of the test compound solution, and 0.545 mL of distilled water. The mixture was preincubated at 30° C. for 15 minutes. Thereafter, the reaction was started by the addition of 0.1 mL of a solution of 50 μM carbobenzoxy-L-arginine-L-arginine-4-methylcoumaryl-7-amide (Z-Arg-Arg-MCA, substrate). The reaction was performed at 30° C. for 20 minutes, and then terminated by addition of 1 mL of an aqueous solution (pH: 4.3) containing 100 mM sodium monochloroacetate, 30 mM sodium acetate and 70 mM acetic acid. The finally obtained solution was subjected to measurement of fluorescence strength (excitation wavelength: 380 nm, emission wavelength: 460 nm).

Test [2] deals with ICR mouse calvaria (bone resorption). As to the kind of experiment: Bone resorption inhibitory activity (PTH-stimulated calcium release from mouse calvaria). The format is cell-based. The settings on record: read-out: Bone Resorption Inhibition, inhibition ratio (%). As to the method: From ICR mouse (age: 6 to 7 days), calvaria was taken under aseptic conditions. The calvaria was divided along the median line into two parts after its connective tissue was removed. In a culture medium (modified BGjb medium, containing 5% inactivated bovine fetal serum) in an amount of 1 mL per a pair of bones, a pre-culture was performed for 24 hours under the conditions of 5% CO2 and 37° C. After the pre-culture was complete, each one of bone was placed in 0.5 mL of the same culture medium containing the test compound of different concentration, and cultured for 72 hours in the presence of 3×10^-7 M parathyroid hormone (PTH). For the control, culture was performed in the same manner except for using neither test compound nor PTH.
After the culture was complete, the amount of calcium released in the supernatant of the culture medium in the 72 hour culture as well as the amount of calcium contained in the bone (dissolved in 1 mL of 6N hydrochloric acid) were determined by ortho-cresol phthalein complexon (OCPC) method.
The calcium release ratio (%) was calculated according to the following equation: [formula]
The inhibition ratio (%) of bone resorption by the test compound was calculated according to the following equation: [formula]

A further test concerns the target cathepsin L (Rattus norvegicus, UniProt P07154). As to the kind of experiment: Cathepsin L inhibitory action (rat liver lysosome fraction, Z-Phe-Arg-MCA). The format is biochemical, rat (Wistar). The settings on record: pH 5.5, 30° C., in the presence of 10^-7 M CA-074; read-out: Cathepsin L Inhibition IC50.
For test [3], the target named is T1, cathepsin B. The settings on record: 10^-7 M CA-074, pH 5.5, Z-Phe-Arg-MCA; cited from earlier work.
Where [4] appears, read: Concentration of Test Comp. 10^-4 M, 72 hours, 3×10^-7 M PTH.
The mark [5] stands for this setting: Concentration of Test Comp. 10^-5 M, 72 hours, 3×10^-7 M PTH.
Where [6] appears, read: Concentration of Test Comp. 10^-6 M, 72 hours, 3×10^-7 M PTH.

Sequence of cathepsin L (P07154 114-334): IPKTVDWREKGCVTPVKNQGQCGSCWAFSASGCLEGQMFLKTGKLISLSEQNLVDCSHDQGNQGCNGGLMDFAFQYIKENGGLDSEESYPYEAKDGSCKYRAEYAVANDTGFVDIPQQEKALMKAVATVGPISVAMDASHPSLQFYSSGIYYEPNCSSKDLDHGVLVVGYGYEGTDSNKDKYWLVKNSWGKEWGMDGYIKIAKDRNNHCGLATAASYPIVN
T1 sequence (P00787 80-339): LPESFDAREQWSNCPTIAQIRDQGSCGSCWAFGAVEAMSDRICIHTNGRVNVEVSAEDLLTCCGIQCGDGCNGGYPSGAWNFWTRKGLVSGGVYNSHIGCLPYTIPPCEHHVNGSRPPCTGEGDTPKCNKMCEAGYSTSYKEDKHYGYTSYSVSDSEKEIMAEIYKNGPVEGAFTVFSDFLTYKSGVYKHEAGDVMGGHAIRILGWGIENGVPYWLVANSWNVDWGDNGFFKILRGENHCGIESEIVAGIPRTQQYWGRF

Consider `O=C(O)[C@H]1O[C@@H]1C(=O)NC(Cc1ccccc1)Cc1ccccc1`, for which the IC50 at cathepsin B [1] turned out to be 200 nM.
In the case of `O=C(O)[C@H]1O[C@@H]1C(=O)NC(c1ccccc1)c1ccccc1`, in test [2] (72 h), the inhibition at 1 µM turned out to be 90%, the inhibition at 10 µM turned out to be 82% and the inhibition at 100 µM turned out to be 95%. Besides, on cathepsin L, the IC50 was determined as 240 nM. Besides, the IC50 at cathepsin B [1] is 230 nM.
Consider `CC(C)CCC(CCC(C)C)NC(=O)[C@H]1O[C@@H]1C(=O)O`, for which, in test [2] (72 h), the inhibition at 1 µM turned out to be 63%, the inhibition at 10 µM was 87% and the inhibition at 100 µM worked out at 82%. The IC50 on cathepsin L is 19 nM. For the same compound, the IC50 at cathepsin B [1] came out at 310 nM.
Take `CC(C)CCNC(=O)[C@H]1O[C@@H]1C(=O)O` (relative stereo) [Comparison X, reference compound]: the inhibition at 100 µM in test [2] (setting [4]) is 66%. The inhibition at 10 µM in test [2] (setting [5]) was found to be 40%. Also, the inhibition at 1 µM in test [2] (setting [6]) is 25%. Moreover, the IC50 on cathepsin L came out at 78 nM.
`O=C(O)[C@H]1O[C@@H]1C(=O)NCc1ccccc1` (relative stereo) [Comparison Y, reference compound]: the inhibition at 100 µM in test [2] (setting [4]) worked out at 44%. The inhibition at 10 µM in test [2] (setting [5]) came out at 38%. In test [2] (setting [6]), the inhibition at 1 µM came to 21%. The IC50 at cathepsin L is 350 nM.
In the case of `CCCNC(=O)[C@H]1O[C@@H]1C(=O)N[C@H](C(=O)N1CCC[C@H]1C(=O)O)[C@@H](C)CC` [CA-074], the “cathepsin B activity inhibition” value on cathepsin B [3] was “completely inhibited”.
